In brackets after ≈: the same amount, converted by molar mass. Like-named read-outs stand apart in the source and are kept apart here.
Legend:
[1] = system: FA-Resistant strains of S. aureus; assay: MIC against 11 FA-resistant strains generated at 4x-32x the MIC; format: cell-based; conditions: for MIC: Staphylococcus aureus
Method: (§1) Antimicrobial Susceptibility Tests. Susceptibility testing was performed in biological triplicate, using the micro-dilution broth method as outlined by the Clinical and Laboratory Standards Institute. Bacteria were cultured with cation-adjusted Muller-Hinton broth (Sigma-Aldrich, Cat #90922) in round-bottom 96-well plates (Corning, Cat #3788). Human serum (Ultrafiltrate, unspecified gender, 30K Dalton membrane filtered) was purchased from BioIVT (Hicksville, NY).
(§2) Selection of Resistant Mutants. Resistant mutants were selected via the large inoculum method. Briefly, S. aureus ATCC 29213 (1×10^9 CFU) were plated on 100 mm plates of LB agar containing 4, 2, 1, 0.5, and 0.25 μg/mL.
(§3) Sequencing of fusA. FusA was amplified by colony PCR. Colonies were picked and diluted in 100 μL sterile H2O. PCR reactions are setup by combining MiFi Mix (Bioline, London, UK), 20 μM primer mix [fusA-F2, fusA_seq1, Forward EF-G2, and Reverse EF-G](S. aureus ATCC 29213), template DNA, and H2O. Reactions were performed on C1000 Thermal Cycler (Bio-Rad, Hercules, CA) with the following conditions: 5 minutes denaturation at 95° C., followed by 30 cycles of 20 seconds at 95° C., 20 seconds at 50° C., and either 1 minute (fusA1) or 1.5 minutes (fusA2) at 72° C. A 10 μL portion of the PCR reaction mixture was analyzed by agarose gel to confirm the product. PCR reactions were purified using GeneJET PCR Purification Kit (Thermo Scientific). PCR amplicons were submitted to the Core DNA Sequencing Facility at the University of Illinois at Urbana-Champaign for Sanger sequencing with the following primers to sequence the fusA [fusA2, fusA_seq1, Forward EF-G2, Forward EF-G3, Forward EF-G4]

[2] = Pharmacokinetic assessment in mice; format: in vivo, C57BL/6 mice; conditions: female, C57BL/6, mouse, in vivo, ip, 50 mg/kg
Method: FIG. 3. A). Pharmacokinetic analysis of fusidic acid and FA-CP. […] The data are illustrated as the mean and represent the average of three independent experiments. The pharmacokinetic parameters illustrated above were calculated with a one-compartment model using a non-linear regression program (Phoenix WinNonlin Version 8.1, Certara USA Inc. Princeton NJ 08540 USA). B). S. aureus ATCC 29213 neutropenic thigh infection burden study. CD-1 mice were first rendered neutropenic with cyclophosphamide. Mice were injected on (Day-4 to Day-2) with 150 mg/kg and on (Day-1) with 100 mg/kg of cyclophosphamide, respectively. […] C). S. aureus (FA-32×-B) neutropenic thigh infection study. CD-1 mice were first rendered neutropenic with cyclophosphamide as described above. […] Drugs were formulated with 5% DMSO, 10% Tween 20, 85% PBS immediately before injection. The data shown as means±s.d. and statistical significance was determined by one-way ANOVA with Tukey's multiple comparisons. NS indicates not significant (P>0.05), **P<0.01, ****P<0.0001.
Pharmacokinetic Assessment of sodium fusidate and FA-CP (25). […] The compounds were formulated in 5% DMSO, 10% Tween 20, and 85% PBS. Mice were treated with sodium fusidate or FA-CP (25) (50 mg/kg) via intraperitoneal injection with three mice per time point (15, 30, 45, 60, 120, and 240 min). At specific time points, mice were sacrificed, blood was collected and centrifuged, and the serum was frozen at −80° C. until analysis. The proteins in a 10 μL aliquot of serum were precipitated by the addition of 50 μL acetonitrile with the addition of 10 μL of 1.6 ug/mL internal standard (sodium fusidate was the internal standard when measuring FA-CP (25) and FA-CP (25) was the internal standard when measuring sodium fusidate). The sample was then vortexed and centrifuged to remove the proteins. Supernatants were analyzed with the QTRAP 5500 LC/MS/MS system (Sciex) in the Metabolomics Laboratory of the Roy J. Carver Biotechnology center, University of Illinois at Urbana-Champaign. Software Analyst 1.6.2 was used for data acquisition and analysis. The 1200 Series HPLC System (Agilent Technologies) includes a degasser, an autosampler and a binary pump. The liquid chromatography separation was performed on an Agilent Zorbax SB-Aq column (4.6 mm×50 mm; 5 μm) with mobile phase A (0.1% formic acid in water) and mobile phase B (0.1% formic acid in acetonitrile). The flow rate was 0.3 mL/min. The linear gradient was as follows: 0-1 min: 95% A; 8-13 min: 0% A; 8.1-18.5 min: 95% A. The autosampler was set at 10° C. The injection volume was 5 μL. Mass spectra were acquired under negative electrospray ionization with a voltage of −4,500 V. The source temperature was 450° C. The curtain gas, ion source gas 1 and ion source gas 2 were 32, 60 and 60 psi, respectively. […] The limit of quantitation of (S/N=10) was 1 nM. Pharmacokinetic parameters were calculated with a one-compartment model using a nonlinear regression program (Phoenix WinNonlin Version 8.1; Certara USA).

[3] = system: S. aureus resistant mutants with EF-G (fusA) mutations; assay: microbe, parasite or virus in culture; format: cell-based; conditions: for MIC: Staphylococcus aureus
Method: as §1, §2, §3

S. aureus ATCC BAA-1721 = assay: MIC against strain possessing the fusC gene; format: cell-based; conditions: Staphylococcus aureus, ATCCBAA1721

SMILES: CC(=O)O[C@H]1C[C@@]2(C)[C@@H](C[C@@H](O)[C@H]3[C@@]4(C)CC[C@@H](O)[C@@H](C)[C@@H]4CC[C@@]32C)/C1=C(\CCC=C1CCCC1)C(=O)O [FA-CP, (Z)-2-((3R,4S,5S,8S,9S,10S,11R,13R,14S,16S)-16-acetoxy-3,11-dihydroxy-4,8,10,14-tetramethylhexadecahydro-17H-cyclopenta[a]phenanthren-17-ylidene)-5-cyclopentylidenepentanoic acid]
- MIC ([1]; strain FA-4X-A, EF-G T385N): 2 µg/mL (≈ 3.68 µM)
- MIC ([1]; strain FA-4X-B, EF-G T385N): 2 µg/mL (≈ 3.68 µM)
- MIC ([1]; strain FA-8X-A, EF-G T385N): 2 µg/mL (≈ 3.68 µM)
- MIC ([1]; strain FA-8X-B, EF-G R464L): 8 µg/mL (≈ 14.7 µM)
- MIC ([1]; strain FA-16X-A, EF-G H457Y): 64 µg/mL (≈ 118 µM)
- MIC ([1]; strain FA-32X-A, EF-G F88L): 128 µg/mL (≈ 236 µM)
- MIC ([1]; strain FA-32X-B, EF-G P406L): 4 µg/mL (≈ 7.37 µM)
- MIC ([1]; strain FA-32X-C, EF-G H457L): 128 µg/mL (≈ 236 µM)
- MIC ([1]; strain FA-32X-D, EF-G T436I): 2 µg/mL (≈ 3.68 µM)
- MIC ([1]; strain FA-32X-E, EF-G H457N): 128 µg/mL (≈ 236 µM)
- MIC ([1]; strain FA-32X-F, EF-G D434N): 32 µg/mL (≈ 59 µM)
- Fold improvement in activity against FA-resistant strains relative to FA ([1]; eleven FA-resistant S. aureus strains): 2-8 fold
- AUC [2]: 11700 ng·h/mL
- CL_F [2]: 71.3 mL/min/kg
- Cmax [2]: 9760 ng/mL
- K10_HL [2]: 19.0 min
- Tmax [2]: 26.4 min
- MIC ([3]; read-out: MIC for FA-CP, strain FA-CP-32X-1, EF-G H457Y): 32 µg/mL (≈ 59 µM)
- MIC ([3]; read-out: MIC for FA-CP, strain FA-CP-32X-2, EF-G H457Y): 64 µg/mL (≈ 118 µM)
- MIC ([3]; read-out: MIC for FA-CP, strain FA-CP-32X-3, EF-G H457Y): 64 µg/mL (≈ 118 µM)
- MIC ([3]; read-out: MIC for FA-CP, strain FA-CP-32X-4, EF-G H457Y): 32 µg/mL (≈ 59 µM)
- MIC ([3]; read-out: MIC for FA-CP, strain FA-CP-32X-5, EF-G H457Y): 64 µg/mL (≈ 118 µM)
- MIC ([3]; read-out: MIC for FA-CP, strain FA-CP-32X-6, EF-G H457Y): 64 µg/mL (≈ 118 µM)
- MIC ([3]; read-out: MIC for FA-CP, strain FA-CP-32X-7, EF-G H457Y): 64 µg/mL (≈ 118 µM)
- MIC ([3]; read-out: MIC for FA-CP, strain FA-CP-32X-8, EF-G H457Y): 64 µg/mL (≈ 118 µM)
- MIC ([3]; read-out: MIC for FA-CP, strain FA-CP-32X-9, EF-G H457Y): 32 µg/mL (≈ 59 µM)
- MIC ([3]; read-out: MIC for FA-CP, strain FA-CP-32X-10, EF-G D434N): 32 µg/mL (≈ 59 µM)
- MIC ([3]; read-out: MIC for FA-CP, strain FA-CP-32X-11, EF-G H457Y): 32 µg/mL (≈ 59 µM)
- MIC ([3]; read-out: MIC for FA-CP, strain FA-CP-32X-12, EF-G D434N): 32 µg/mL (≈ 59 µM)
- MIC ([3]; read-out: MIC for FA-CP, strain FA-CP-32X-13, EF-G H457Y): 64 µg/mL (≈ 118 µM)
- MIC ([3]; read-out: MIC for FA-CP, strain FA-CP-32X-14, EF-G H457Y): 32 µg/mL (≈ 59 µM)
- MIC ([3]; read-out: MIC for FA-CP, strain FA-CP-32X-15, EF-G H457Y): 64 µg/mL (≈ 118 µM)
- MIC ([3]; read-out: MIC for FA-CP, strain FA-CP-32X-16, EF-G F88L): 64 µg/mL (≈ 118 µM)
- MIC ([3]; read-out: MIC for FA-CP, strain FA-CP-32X-17, EF-G F88L): 64 µg/mL (≈ 118 µM)
- MIC ([3]; read-out: MIC for FA-CP, strain FA-CP-32X-18, EF-G H457Y): 64 µg/mL (≈ 118 µM)
- MIC ([3]; read-out: MIC for FA-CP, strain FA-CP-32X-19, EF-G H457Y): 32 µg/mL (≈ 59 µM)
- MIC ([3]; read-out: MIC for FA-CP, strain FA-CP-32X-20, EF-G H457Y): 32 µg/mL (≈ 59 µM)
- Fold increase from WT S. aureus of highest MIC ([3]; colonies generated from the same compound at 32× the MIC): 512
- MIC (S. aureus ATCC BAA-1721): 8 µg/mL (≈ 14.7 µM)
